What is called pIC50 is the negative decadic logarithm of the IC50, by convention in mol/L. A low value points to a high IC50. The CLint scaled is the capacity of the preparation to metabolise the compound, expressed as a volume cleared per time.

pIC50: −log10 of the molar value.

For one data set, the target named is T1, rat EP1 receptor (Rattus norvegicus, UniProt P70597).
T1 construct: expressed in transfected cells
T1 sequence (P70597 1-405): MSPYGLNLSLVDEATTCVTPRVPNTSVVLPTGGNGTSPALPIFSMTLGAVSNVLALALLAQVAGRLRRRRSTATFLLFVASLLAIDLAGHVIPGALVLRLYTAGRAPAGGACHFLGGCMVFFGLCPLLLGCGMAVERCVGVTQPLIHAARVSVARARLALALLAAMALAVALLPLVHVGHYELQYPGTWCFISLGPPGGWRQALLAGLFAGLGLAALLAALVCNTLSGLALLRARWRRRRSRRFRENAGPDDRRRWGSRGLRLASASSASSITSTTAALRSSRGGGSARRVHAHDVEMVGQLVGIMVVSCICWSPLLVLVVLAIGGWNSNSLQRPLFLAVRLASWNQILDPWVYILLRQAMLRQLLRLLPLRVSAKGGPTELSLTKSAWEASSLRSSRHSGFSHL
The data set can be described thus: Test to measure receptor antagonistic activity using EP1 receptor-expressing cells (PGE2-induced intracellular Ca change, FLIPR). The data set is classed as cell-based. As to conditions: HEK293 cells stably expressing rat EP1 receptor, 100 nM PGE2. The procedure:
Test Example 1 Test to Measure Receptor Antagonistic Activity Using EP1 Receptor-Expressing Cells
HEK293 cells (American Type Culture Collection) that stably expressed rat EP1 receptor were dispensed onto a 96-well poly-D-lysine-coated plate (product name: BIOCOAT, PDL96W black/clear, by Nippon Becton Dickinson) at 2×10^4 cells/well on the day before the experiment, and incubated overnight at 37° C. under 5% carbon dioxide (CO2) in a culture medium containing 10% fetal bovine serum (FBS) (product name: DMEM, Invitrogen). The culture medium was replaced with a loading buffer (a washing solution containing 4 μM of fluorescent-labeled indicator (product name: Fluo3-AM, Dojindo): Hank's balanced salt solution (HBSS), 20 mM 2-[4-(2-hydroxyethyl)-1-piperazinyl]ethanesulfonic acid (HEPES)-sodium hydroxide (NaOH), 2.5 mM Probenecid, and 0.1% bovine serum albumin (BSA)), and left to stand at room temperature for 3 hours, and the cells were washed using a plate washer (product name: ELx405, Bio-Tek Instruments, Inc.) in which the washing solution had been set up. The compound that had been preliminarily dissolved and diluted in the washing solution was added thereto, and set up in a system for measuring the intracellular calcium (Ca) concentration (product name: FLIPR, Molecular Devices, Inc.). After 5 minutes, PGE2 was added to a final concentration of 100 nM, and the change in intracellular Ca concentration was measured. The difference between a maximum value and a minimum value in the intracellular Ca concentration change was determined, and retained as measurement data. When a response with addition of 100 nM PGE2 was taken as 0% and a response with addition of a buffer was taken as 100%, the concentration causing 50% inhibition was determined as an IC50 value. Further, in the table, Ex represents Example numbers as described later.

A short description of data set [1]: Test on metabolic stability in human liver microsome. The data set is classed as in vitro ADME. As to conditions: human liver microsomes, pH 7.4; human liver microsome 0.2 mg protein/ml, 37° C. 15 minutes, in vitro clearance by integration plot. As to the method: Test Example 5 Test on Metabolic Stability in Human Liver Microsome
Using a glass test tube, a test compound and human liver microsome (0.2 mg protein/ml) were incubated at 37° C. for 15 minutes in a 100 mM phosphate buffer (pH=7.4) containing 0.1 mM EDTA and 1 mM NADPH. Thereafter, the reaction was stopped by adding an aqueous solution containing 80% acetonitrile. Thereafter, each sample was analyzed by HPLC and the in vitro clearance (CLint) was calculated by an integration plot.
On the technique in general: Microsomes from liver hold many membrane-bound enzymes, among them those of drug oxidation.

Data set [2] addresses T2, CYP3A4 (Homo sapiens, UniProt P08684).
T2 construct: human liver microsome (0.1 mg protein/ml); from tissue; host or cells: human liver microsome
Nature of the data set: Cytochrome P450 (CYP) 3A4 enzyme inhibition, Inhibition Test I. The data set is classed as in vitro ADME. As to conditions: human liver microsomes, probe midazolam; human liver microsome 0.1 mg protein/ml, substrate midazolam, 37° C. 20 minutes; read-out: Inhibitory activity I (%). As to the method: (§1) Test Example 4 Test on Cytochrome P450 (CYP) 3A4 Enzyme Inhibition (Evaluation of Drug Interaction)
(1) Inhibition Test I (Calculation of Inhibitory Activity I)
Using a 96-well plate, a substrate (midazolam), a test compound and human liver microsome (0.1 mg protein/ml) were incubated at 37° C. for 20 minutes in a 100 mM phosphate buffer containing 0.1 mM EDTA and 1 mM NADPH. Then, the reaction was stopped by adding an aqueous solution containing 80% acetonitrile. Thereafter, each sample was analyzed by LC/MS, and the inhibitory activity I was calculated using the following formula. Inhibitory Activity I(%)=100−Vi.I/V0.I×100
Vi,I: Metabolic rate of substrate in the presence of the test compound at a known concentration in the inhibition test I
V0,I: Metabolic rate of substrate in the absence of the test compound in the inhibition test I

Data set [3] has as its target T2, CYP3A4. Nature of the data set: Cytochrome P450 (CYP) 3A4 enzyme inhibition, Inhibition Test II (preincubation). Format: in vitro ADME. As to conditions: human liver microsomes, pH 7.4, probe midazolam; human liver microsome 0.1 mg protein/ml, 30 minutes preincubation with test compound, then midazolam 20 minutes; read-out: Inhibitory activity II (%). The procedure:
as §1
(2) Inhibition Test II (Calculation of Inhibitory Activity II)
Using a 96-well plate, a test compound and human liver microsome (0.1 mg protein/ml) were incubated at 37° C. for 30 minutes in a total amount of 145 μl of 100 mM phosphate buffer (pH=7.4) containing 0.1 mM EDTA and 1 mM NADPH. Then, midazolam as the substrate was added thereto and incubated at 37° C. for 20 minutes. After the incubation, the reaction was stopped by adding an aqueous solution containing 80% acetonitrile. Thereafter, each sample was analyzed by LC/MS, and the inhibitory activity II was calculated using the following formula. Inhibitory Activity II(%)=100−Vi,II/V0,II/(100-inhibitory activity I(%))×100×100
Vi,II: Metabolic rate of substrate in the presence of the test compound at a known concentration in the inhibition test II
V0,II: Metabolic rate of substrate in the absence of the test compound in the inhibition test II

T2 sequence (P08684 whole entry): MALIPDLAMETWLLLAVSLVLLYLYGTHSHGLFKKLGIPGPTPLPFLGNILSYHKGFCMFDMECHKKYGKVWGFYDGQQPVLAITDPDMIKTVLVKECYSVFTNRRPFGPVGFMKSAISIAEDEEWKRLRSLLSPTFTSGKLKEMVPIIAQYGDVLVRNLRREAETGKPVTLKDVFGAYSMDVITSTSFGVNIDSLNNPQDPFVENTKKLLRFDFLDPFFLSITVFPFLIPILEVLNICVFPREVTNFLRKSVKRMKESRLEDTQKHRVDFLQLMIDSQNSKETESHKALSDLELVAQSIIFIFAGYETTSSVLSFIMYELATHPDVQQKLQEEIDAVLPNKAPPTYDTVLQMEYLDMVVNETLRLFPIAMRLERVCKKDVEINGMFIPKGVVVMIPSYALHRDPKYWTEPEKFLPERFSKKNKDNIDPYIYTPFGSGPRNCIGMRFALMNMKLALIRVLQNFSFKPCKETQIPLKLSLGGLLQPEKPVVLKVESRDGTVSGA

In turn, `Cc1cc(C(=O)O)ccc1COc1cc2c(cc1N(CC(C)F)S(=O)(=O)c1cc(F)cc(F)c1)CCC2` (stereo not shown) [Example 63] had a negative-log IC50 (pIC50) at rat EP1 receptor of 9.52.
Same read-out and setting: under `Cc1csc(S(=O)(=O)N(CC(C)F)c2cc3c(cc2OCc2ccc(C(=O)O)cc2C)CCC3)n1` (stereo not shown) [Example 66] stands 9.28.
Molecule `Cc1csc(S(=O)(=O)N(CC(C)F)c2cc(C)c(Cl)cc2OCc2ccc(C(=O)O)cc2)n1` (stereo not shown) [Example 71] showed a pIC50 at rat EP1 receptor of 9.49. Also, the CLint scaled in data set [1] is 153 mL/min/kg.
`Cc1csc(S(=O)(=O)N(CC(C)F)c2cc3c(cc2OCc2ccc(C(=O)O)s2)CCC3)n1` (stereo not shown) [Example 80] had a negative-log IC50 (pIC50) against rat EP1 receptor of 9.07. Besides, the CLint scaled in data set [1] turned out to be 212 mL/min/kg.
At rat EP1 receptor, `C[C@@H](F)CN(c1cc2c(cc1OCc1ccc(C(=O)O)cc1)CCC2)S(=O)(=O)c1ccccn1` [Example 102] showed a pIC50 of 8.74. The inhibition at 20 min on CYP3A4 [2] was found to be 1%; on CYP3A4 [3], 0%. The intrinsic metabolic clearance (CLint scaled) in data set [1] is 244 mL/min/kg.
On the same counts, the results for `C[C@H](F)CN(c1cc2c(cc1OCc1ccc(C(=O)O)cc1)CCC2)S(=O)(=O)c1cccnc1` [Example 103] are 9.40, 12%, 7% and 228 mL/min/kg.
The molecule `Cc1csc(S(=O)(=O)N(C[C@H](C)F)c2cc3c(cc2OCc2ccc(C(=O)O)c(F)c2)CCC3)n1` [Example 113] gave a negative logarithm of the IC50 (pIC50) against rat EP1 receptor of 9.05.
For the molecule `Cc1cc(OCc2ccc(C(=O)O)cc2)c(N(C[C@@H](C)CF)S(=O)(=O)c2ccccn2)cc1C` [Example 117], the negative-log IC50 (pIC50) on rat EP1 receptor is 8.72. The inhibition at 20 min at CYP3A4 [2] was 3%; at CYP3A4 [3] it was 5%. In addition, the CLint scaled in data set [1] was found to be 58 mL/min/kg.

Source of the values: US8314240B2, “Sulfonamide compounds or salts thereof” (Astellas Pharma Inc., priority 2008, dated 2012).
